Test results: patent US7592308B2, “F3W variants of the lantibiotic mersacidin and its use” (priority 2004, dated 2009)
Square brackets hold non-standard residues; d marks the D form. Ends that are not written are not given here. Dha = C=C(N)C(=O)O

How the values were obtained:
E. faecalis 29212 = test: MIC, two-fold serial dilution in broth; type: cell-based, Enterococcus faecalis; details: Table 8A; MHB + 50 μg/ml calcium; duplicate
Description: (§1) A selection of the variants produced in Example 1 above were tested further for activity against a range of bacteria. Minimum inhibitory concentrations (MICs) for all organisms with the exception of Streptococcus pneumoniae were determined by two-fold serial antibiotic dilutions in Mueller-Hinton broth (MHB) supplemented with 50 μg/ml calcium as calcium chloride dihydrate. Minimum inhibitory concentrations (MICs) for S. pneumoniae were determined by two-fold serial antibiotic dilutions in Brain Heart Infusion (BHI) broth supplemented with 50 μg/ml calcium as calcium chloride dihydrate. Antimicrobial agent stock solutions were prepared and stored according to NCCLS standard M7-A6.
(§2) Actively growing broth cultures were diluted to contain […] by adjusting to an absorbance of 0.2-0.3 at 600 nm, equivalent to the McFarland 0.5 standard. They were then diluted a further 1:100 in broth. The assays were performed in duplicate in sterile 96-well microtitre plates in a total volume of 200 μl (160 μl broth, 20 μl antibiotic, 20 μl inoculum) in a concentration range from 64 μg/ml to 0.06 μg/ml. The 12th well of the microtitre plate contained no antimicrobial agent. Vancomycin was used as a reference antibiotic for quality control. Plates were incubated aerobically, shaking, for 18-20 hours at 37° C. with the MIC defined as the lowest concentration of drug that produced no visible growth.

E. faecium 19579 = test: MIC, two-fold serial dilution in broth; type: cell-based, Enterococcus faecium; details: Table 8A; MHB + 50 μg/ml calcium; duplicate
Description: as §1, §2

E. faecium 7131121 = test: MIC, two-fold serial dilution in broth; type: cell-based, Enterococcus faecium; details: Table 8A; MHB + 50 μg/ml calcium; duplicate
Description: as §1, §2

S. pneumoniae R6 = type: cell-based, Streptococcus pneumoniae; details: Table 8B; BHI broth + 50 μg/ml calcium; duplicate
Description: as §1, §2

S. epidermidis 11047 = type: cell-based, Staphylococcus epidermidis; details: Table 8B; MHB + 50 μg/ml calcium; duplicate
Description: as §1, §2

S. aureus SH1000 = type: cell-based, Staphylococcus aureus; details: Table 8A; MHB + 50 μg/ml calcium; duplicate
Description: as §1, §2

S. aureus R33 = type: cell-based, Staphylococcus aureus; details: Table 8A; MHB + 50 μg/ml calcium; duplicate
Description: as §1, §2

[1] = tested on: Micrococcus luteus ATCC4698; test: Bioassay of culture supernatant against M. luteus; type: cell-based; details: aqueous phase of chloroform-extracted culture supernatant
Description: The cultures were assayed for production of mersacidin by HPLC and bioassay against Micrococcus luteus ATCC4698. Samples of production cultures (1 ml) were centrifuged at 14000 rpm for 10 minutes. Supernatants were decanted and used undiluted for HPLC and bioassay.
For bioassays, M.luteus was inoculated from frozen stock into 10 ml half-strength Muller-Hinton broth in a 50 ml conical flask, and incubated at 30C with shaking at 250 rpm for approximately 7 hours, 0.3 ml of this culture was used to inoculate 300 ml of Muller-Hinton agar which was poured into a bioassay plate. Wells (6 mm diameter) were made with a cork-borer. Samples of 50 μl of supernatants were added to these wells. The concentration of mersacidin in the samples was calculated by comparing the diameter of inhibition zones of samples against a range of concentrations of a pure mersacidin standard.
Chloramphenicol resistant colonies were selected and grown in 3 ml Tryptic Soy Broth at 30C for 24 hours, 250 rpm and 0.3 ml of these cultures were used to inoculate 7 ml of 2×BPM+300 mM glucose+chloramphenicol (20 mg/l). After five days of incubation at 30C and 250 rpm, a 1 ml sample was collected and centrifuged at 13000 rpm for 10 min, the supernatant was removed, extracted with 1 volume of chloroform and the aqueous phase used for bioassay and HPLC-MS analysis (see accompanying disclosure for method). […] These masses are consistent with production of the expected mature lantibiotic products.
The ligation mixture was used to transform E. coli DH10B (Invitrogen). Ampicillin resistant colonies were selected, grown in LB+ampicillin (100 mg/l) and plasmids were isolated and characterised by sequence analysis. Plasmid encoding the expected mutant (pNB2024) was used to transform E. coli ET12567 and the plasmid obtained from this strains was used to transform Bacillus sp. HIL Y-85,54728 E17A. Chloramphenicol resistant colonies were selected and grown in 3 ml Tryptic Soy Broth at 30C for 24 hours, 250 rpm and 0.3 ml of these cultures were used to inoculate 7 ml of 2×BPM+300 mM glucose+chloramphenicol (20 mg/l). […]

S. aureus COL = type: cell-based, Staphylococcus aureus; details: Table 10; duplicate
Description: (§3) MIC tests were performed with some of the variants of Example 2 on a range of other organisms. The results are shown in Tables 9 and 10 (figures in μg/ml): […]

E. faecium BM4147 = test: MIC test, further organisms; type: cell-based, Enterococcus faecium; details: Table 10; duplicate
Description: as §3

S. aureus Mu50 = test: MIC test, further organisms; type: cell-based, Staphylococcus aureus; details: Table 10; duplicate
Description: as §3

S. aureus LT 1012-13 = test: MIC test, further organisms; type: cell-based, Staphylococcus aureus; details: Table 10; duplicate
Description: as §3

M. luteus 4698 = type: cell-based, Micrococcus luteus; details: Table 8B; MHB + 50 μg/ml calcium; duplicate
Description: as §1, §2

| Compound | MIC E. faecalis 29212 (E. faecalis 29212) | MIC E. faecium 19579 (E. faecium 19579) | MIC E. faecium 7131121 (E. faecium 7131121) | MIC S. pneumoniae R6 (S. pneumoniae R6) | MIC S. epidermidis 11047 (S. epidermidis 11047) | MIC S. aureus SH1000 (S. aureus SH1000) | MIC S. aureus R33 (S. aureus R33) | antibiotic activity in bioassay against M. luteus [1] | MIC S. aureus COL (S. aureus COL) | MIC E. faecium BM4147 (E. faecium BM4147) | MIC S. aureus Mu50 (S. aureus Mu50) | MIC S. aureus LT 1012-13 (S. aureus LT 1012-13) | MIC M. luteus 4698 (M. luteus 4698) |
| --- | --- | --- | --- | --- | --- | --- | --- | --- | --- | --- | --- | --- | --- |
| G9R: mersacidin variant (CTFTLPGGRGVCTLT[Dha]ECIC; thioether (positions not given here); not fully specified; UniProt P43683 49-68, looked up, variant G9R) | >64, >64 μg/ml | >64, >64 μg/ml | >64, >64 μg/ml | >64, >64 μg/ml | >64, >64 μg/ml | >64, >64 μg/ml | >64, >64 μg/ml | – | – | – | – | – | – |
| G8V: mersacidin variant, inactive in bioassay (CTFTLPGVGGVCTLT[Dha]ECIC; thioether (positions not given here); not fully specified; UniProt P43683 49-68, looked up, variant G8V) | – | – | – | – | – | – | – | inactive | – | – | – | – | – |
| C=C1NC(=O)C2NC(=O)[C@H](CC(C)C)NC(=O)C(NC(=O)[C@@H]3CSC(C)C(NC(=O)[C@H](Cc4ccccc4)NC(=O)C4NC(=O)[C@@H](N)CSC4C)C(=O)N[C@@H](CC(C)C)C(=O)N[C@@H](Cc4c[nH]cn4)C(=O)NCC(=O)NCC(=O)NCC(=O)NCC(=O)N[C@@H](C(C)C)C(=O)N3)C(C)SC[C@H](NC(=O)[C@H](CCC(=O)O)NC1=O)C(=O)N[C@@H]([C@@H](C)CC)C(=O)NC=CSC2C (stereo partly shown) [P6H] | >64, >64 μg/ml | >64, >64 μg/ml | >64, >64 μg/ml | >64, 64 μg/ml | – | – | – | – | >64, >64 μg/ml | >64, >64 μg/ml | >64, >64 μg/ml | >64, >64 μg/ml | – |
| G9H: mersacidin variant (CTFTLPGGHGVCTLT[Dha]ECIC; thioether (positions not given here); not fully specified; UniProt P43683 49-68, looked up, variant G9H) | >64, >64 μg/ml | – | – | – | – | – | – | – | >64, >64 μg/ml | >64, >64 μg/ml | >64, >64 μg/ml | >64, >64 μg/ml | <4, <4 μg/ml |
